Experimental data: article PMC9588780, “Purification and structural characterization of the Na^+-translocating ferredoxin: NAD^+ reductase (Rnf) complex of Clostridium tetanomorphum” (Nature Communications, 2022)

Columns and labels:
[1] = target: T1, Rnf complex (RnfABCDEG), RnfD site (Clostridium tetanomorphum, UniProt A0A923IYK2); test: cryo-EM structure ([…] Å); type: binding
T1 construct: native six-subunit membrane complex purified from C. tetanomorphum, in MSP1D1/DMPC nanodisc; RnfD 33 kDa; with Ion-translocating oxidoreductase complex subunit A; Ion-translocating oxidoreductase complex subunit B; Ion-translocating oxidoreductase complex subunit C; Ion-translocating oxidoreductase complex subunit E; Ion-translocating oxidoreductase complex subunit G
T1 sequence (A0A923IZ11 1-435 partner, one chain of several): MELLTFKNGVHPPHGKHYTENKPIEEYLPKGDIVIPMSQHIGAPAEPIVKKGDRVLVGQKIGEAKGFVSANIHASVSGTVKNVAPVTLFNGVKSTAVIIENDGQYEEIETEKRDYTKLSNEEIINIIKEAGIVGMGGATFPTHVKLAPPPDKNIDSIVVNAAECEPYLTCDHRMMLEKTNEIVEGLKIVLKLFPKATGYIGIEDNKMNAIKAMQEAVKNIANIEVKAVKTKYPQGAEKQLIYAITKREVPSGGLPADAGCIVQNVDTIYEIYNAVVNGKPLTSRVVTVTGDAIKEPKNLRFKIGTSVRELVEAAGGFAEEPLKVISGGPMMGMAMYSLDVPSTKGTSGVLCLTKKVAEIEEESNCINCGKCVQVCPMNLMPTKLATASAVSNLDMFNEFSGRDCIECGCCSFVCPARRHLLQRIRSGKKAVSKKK
T1 sequence (A0A923J0P9 1-191 partner, one chain of several): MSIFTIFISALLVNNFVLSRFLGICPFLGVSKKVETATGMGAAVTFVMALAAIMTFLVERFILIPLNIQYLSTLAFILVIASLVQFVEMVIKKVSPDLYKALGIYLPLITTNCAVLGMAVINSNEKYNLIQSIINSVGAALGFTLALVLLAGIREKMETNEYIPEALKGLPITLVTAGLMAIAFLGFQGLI
T1 sequence (A0A923IZB8 1-202 partner, one chain of several): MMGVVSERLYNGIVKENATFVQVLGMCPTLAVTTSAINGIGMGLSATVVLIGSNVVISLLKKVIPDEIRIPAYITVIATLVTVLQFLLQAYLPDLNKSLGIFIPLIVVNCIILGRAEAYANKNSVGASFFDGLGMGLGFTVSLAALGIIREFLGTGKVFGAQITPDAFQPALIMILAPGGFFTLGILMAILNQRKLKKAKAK
T1 sequence (A0A923J084 1-189 partner, one chain of several): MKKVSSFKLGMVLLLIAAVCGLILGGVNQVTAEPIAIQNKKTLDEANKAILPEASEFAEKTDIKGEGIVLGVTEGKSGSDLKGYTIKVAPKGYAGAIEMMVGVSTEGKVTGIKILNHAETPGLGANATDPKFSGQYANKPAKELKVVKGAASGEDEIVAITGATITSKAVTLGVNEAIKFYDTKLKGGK

[2] = target: T2, Rnf complex (RnfABCDEG), RnfG site (Clostridium tetanomorphum, UniProt A0A923J084); test: cryo-EM structure ([…] Å); UV fluorescence on SDS-PAGE; type: binding; conditions: covalent; phosphoester to Thr164 of RnfG
T2 construct: native six-subunit membrane complex purified from C. tetanomorphum, in MSP1D1/DMPC nanodisc; RnfG 20 kDa; with Ion-translocating oxidoreductase complex subunit A; Ion-translocating oxidoreductase complex subunit B; Ion-translocating oxidoreductase complex subunit C; Ion-translocating oxidoreductase complex subunit D; Ion-translocating oxidoreductase complex subunit E
T2 sequence (A0A923J084 1-189, one chain of several): as the sequence (A0A923J084 1-189 partner, one chain of several) above
T2 sequence (A0A923J0P9 1-191 partner, one chain of several): as the sequence (A0A923J0P9 1-191 partner, one chain of several) above
T2 sequence (A0A923IZB8 1-202 partner, one chain of several): as the sequence (A0A923IZB8 1-202 partner, one chain of several) above
T2 sequence (A0A923IZ11 1-435 partner, one chain of several): as the sequence (A0A923IZ11 1-435 partner, one chain of several) above

[3] = target: T3, Rnf complex (RnfABCDEG), RnfC site (Clostridium tetanomorphum, UniProt A0A923IZ11); test: NADH oxidation, hexacyanoferrate(III) reduction at […] nm; type: biochemical; conditions: 200 µM NADH, 100 µM hexacyanoferrate(III), 150 mM NaCl, 50 mM potassium phosphate pH 7.5, 0.05% DDM, room temperature, anaerobic
T3 construct: gene rsxC; native six-subunit membrane complex purified from C. tetanomorphum in DDM (MSP1D1/DMPC nanodisc for cryo-EM); RnfC 1-435, 47 kDa; complex ca. 200-250 kDa; with Ion-translocating oxidoreductase complex subunit A; Ion-translocating oxidoreductase complex subunit B; Ion-translocating oxidoreductase complex subunit D; Ion-translocating oxidoreductase complex subunit E; Ion-translocating oxidoreductase complex subunit G
T3 sequence (A0A923IZ11 1-435, one chain of several): as the sequence (A0A923IZ11 1-435 partner, one chain of several) above
T3 sequence (A0A923J0P9 1-191 partner, one chain of several): as the sequence (A0A923J0P9 1-191 partner, one chain of several) above
T3 sequence (A0A923IZB8 1-202 partner, one chain of several): as the sequence (A0A923IZB8 1-202 partner, one chain of several) above
T3 sequence (A0A923J084 1-189 partner, one chain of several): as the sequence (A0A923J084 1-189 partner, one chain of several) above

[4] = target: T3, Rnf complex (RnfABCDEG), RnfC site; test: coupled enzyme assay with Etf/butyryl-CoA dehydrogenase, […] nm; type: biochemical; conditions: reduced ferredoxin as electron donor (50 µM Fd), crotonyl-CoA, room temperature
[5] = target: T4, RnfD subunit of the Na+-translocating ferredoxin:NAD+ reductase (Rnf) complex of Clostridium tetanomorphum (Clostridium tetanomorphum (endogenous …, UniProt A0A923IYK2 1-310, FMN covalently attached by its phospho group to the Thr153 hydroxy group)); test: cryo-EM structure; native Rnf complex of C. tetanomorphum reconstituted into a DMPC-filled MSP1D1 nanodisc; grids prepared in an anaerobic tent (95% N2, 5% H2); 88,423 particles, overall resolution 4.27 Å; conditions: both partners purified
T4 construct: native subunit of the purified Rnf complex; Also holds a riboflavin
T4 sequence (looked up): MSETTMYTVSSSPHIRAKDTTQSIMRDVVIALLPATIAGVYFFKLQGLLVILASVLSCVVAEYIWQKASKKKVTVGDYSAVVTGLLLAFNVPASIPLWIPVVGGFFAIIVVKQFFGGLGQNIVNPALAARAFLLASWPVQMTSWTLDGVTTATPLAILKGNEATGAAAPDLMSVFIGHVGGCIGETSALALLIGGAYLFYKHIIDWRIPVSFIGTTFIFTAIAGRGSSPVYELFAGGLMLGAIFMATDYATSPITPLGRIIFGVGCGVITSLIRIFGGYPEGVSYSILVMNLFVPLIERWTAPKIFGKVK

## Cc1cc2nc3c(=O)[nH]c(=O)nc-3n(C[C@H](O)[C@H](O)[C@H](O)COP(=O)(O)O)c2cc1C [FMN]
[1]; covalent, phosphoester to Thr153 of RnfD (covalent FMN seen in structure; RnfD band not detected by UV on SDS-PAGE)
  cryo-EM structure (4.27 Å): The phospho group of FMNRnfD is covalently attached to the well-conserved Thr153 hydroxy group
[2]
  cryo-EM structure (4.27 Å); UV fluorescence on SDS-PAGE: FMN is covalently attached via its phospho group to the conserved Thr164

## NC(=O)C1=CN([C@@H]2O[C@H](COP(=O)(O)OP(=O)(O)OC[C@H]3O[C@@H](n4cnc5c(N)ncnc54)[C@H](O)[C@@H]3O)[C@@H](O)[C@H]2O)C=CC1 [NADH]
[3]
  NADH oxidation, hexacyanoferrate(III) reduction at 420 nm: using hexacyanoferrate(III) as electron acceptor for NADH oxidation

## NC(=O)c1ccc[n+]([C@@H]2O[C@H](COP(=O)(O)OP(=O)(O)OC[C@H]3O[C@@H](n4cnc5c(N)ncnc54)[C@H](O)[C@@H]3O)[C@@H](O)[C@H]2O)c1 [NAD^+]
[4]
  coupled enzyme assay with Etf/butyryl-CoA dehydrogenase, 340 nm: The biological relevant NAD^+ reduction with Fdred was determined with a coupled enzyme assay

## Cc1cc2nc3c(=O)[nH]c(=O)nc-3n(C[C@H](O)[C@H](O)[C@H](O)CO)c2cc1C [RBF, riboflavin]
[1]; cytoplasmic half-channel pocket of RnfD near Asn124 and Asp248, density assigned with help of A. vinelandii Rnf structure
  cryo-EM structure (4.27 Å): the density becomes interpretable as riboflavin

B1: RnfB subunit of the Na+-translocating ferredoxin:NAD+ reductase (Rnf) complex of Clostridium tetanomorphum (natural protein, UniProt A0A923E755 1-274, looked up)
chain: MEGLLFPVLSLGGLGVVFGLLLGYASKKFAVEVDERVPMVRAALPGANCGGCGFAGCDAYADAVVNAGAKPNGCPVGGAACAAKIAEIMGVVVDSSEPKKAYVKCQGTCDKAKEKYEYYGAMTCVDAANIPGAGSKTCGFGCLGLGSCVQVCAFDAIHVENGIAVVDEEACTGCGACVSICPKSVIELTPMSKKVRISCNSHDKGIEVKNACSVGCLSCGLCVRNCPSEAITMVNNLPVIDYDKCTQCGVCVGKCPTKAIVNLNTNVSKEASNN
notes: native subunit of the purified Rnf complex; Carries five reliably identified [4Fe-4S] clusters; a sixth in FdI is held likely; also called ferredoxin subunit RnfB
[5]
  binding result: binds
